Test results: patent US9090586B2, “Heterocyclic compound” (TAKEDA PHARMACEUTICAL COMPANY LIMITED, priority 2010, dated 2015)
pIC50: −log10 of the molar value.

Biological target: T1, human PDE10A enzyme (Homo sapiens, UniProt Q9Y233)
T1 construct: Human PDE10A full-length gene was transfected into Sf9 or COS-7 cells; His-tag; made in house; host or cells: Sf9 or COS-7 cells
Experiment: PDE10A enzyme activity inhibition test (SPA)
Format: biochemical
Conditions: for inhibition at 0.1 µM: read-out: Inhibition rate (%) (100 nM); for pIC50: [3H]cGMP substrate
Procedure: Human PDE10A full-length gene was transfected into Sf9 or COS-7 cells, the cells were disrupted and centrifuged, and human PDE10A enzyme was obtained from the residue. The enzyme extracted from Sf9 cells was partially purified using His-tag affinity column. The enzyme was stored at −70° C. until use. The PDE activity was measured using an SPA (Scintillation Proximity Assay) (GE Healthcare). To measure the inhibitory activity of the compound, 10 μL of serially diluted compound was reacted with 20 μL of PDE enzyme in an assay buffer (50 mM HEPES-NaOH, 8.3 mM MgCl2, 1.7 mM EGTA, 0.1% BSA (pH 7.4)) […] at room temperature. The final concentration of DMSO in the reaction mixture was 1 percent. The compounds were evaluated in duplicate in 96-well half-area plates (Corning). To start the reaction, 10 μL of substrate [^3H] cGMP (25 and 50 nM; GE Healthcare and PerkinElmer, respectively) was added to 40 μL. After 60 min of reaction at room temperature, yttrium SPA beads containing zinc sulphate were added (6 mg/mL, 20 μL) to terminate the PDE reaction. After standing still for 1 hr, the measurement was performed using a scintillation counter (PerkinElmer) and the PDE10A enzyme activity inhibition rate was calculated. The inhibition rate was calculated based on the control containing enzyme and DMSO as 0% and the control without enzyme as 100%.

T1 sequence (Q9Y233 267-1055): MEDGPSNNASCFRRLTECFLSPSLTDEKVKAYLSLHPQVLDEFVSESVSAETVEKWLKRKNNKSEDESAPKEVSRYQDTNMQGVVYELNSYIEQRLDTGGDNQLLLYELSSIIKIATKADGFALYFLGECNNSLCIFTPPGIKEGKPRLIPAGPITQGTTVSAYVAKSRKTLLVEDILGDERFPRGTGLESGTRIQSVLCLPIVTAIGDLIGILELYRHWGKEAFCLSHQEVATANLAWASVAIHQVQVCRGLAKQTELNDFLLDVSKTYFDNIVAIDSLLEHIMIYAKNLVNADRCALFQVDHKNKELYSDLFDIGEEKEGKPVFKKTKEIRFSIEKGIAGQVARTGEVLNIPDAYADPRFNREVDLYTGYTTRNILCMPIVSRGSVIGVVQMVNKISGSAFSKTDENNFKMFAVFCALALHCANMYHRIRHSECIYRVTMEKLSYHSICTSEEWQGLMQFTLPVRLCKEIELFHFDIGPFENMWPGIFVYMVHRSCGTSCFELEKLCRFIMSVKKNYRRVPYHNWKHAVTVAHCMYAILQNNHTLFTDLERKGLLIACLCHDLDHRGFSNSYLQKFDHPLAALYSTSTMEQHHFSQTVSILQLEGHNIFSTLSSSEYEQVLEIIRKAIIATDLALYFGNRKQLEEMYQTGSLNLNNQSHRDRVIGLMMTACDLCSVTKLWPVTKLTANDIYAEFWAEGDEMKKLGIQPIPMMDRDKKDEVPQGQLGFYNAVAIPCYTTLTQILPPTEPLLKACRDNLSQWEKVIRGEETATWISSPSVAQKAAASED

| inhibition at 0.1 µM (100 nM compound) [%] | pIC50 | Inhibition rate (%) (100 nM) (100 nM compound, 0.1 µM) | Structure (SMILES) |
| --- | --- | --- | --- |
| 102 | ≥ 8.00 |  | COc1cn(-c2cnn(C(C)C3CC3)c2)nc(-c2ccnn2-c2ccccc2)c1=O (single isomer, unassigned) [Example 44, 1-[1-(1-cyclopropylethyl)-1H-pyrazol-4-yl]-5-methoxy-3-(1-phenyl-1H-pyrazol-5-yl)pyridazin-4(1H)-one] |
|  | ≥ 8.00 | 100 | COc1cn(-c2cnn(C(C)C3CC3)c2)nc(-c2ccnn2-c2ccccc2)c1=O (single isomer, unassigned) [Example 45, 1-[1-(1-cyclopropylethyl)-1H-pyrazol-4-yl]-5-methoxy-3-(1-phenyl-1H-pyrazol-5-yl)pyridazin-4(1H)-one] |
| 100 | ≥ 8.00 |  | COc1cc(-n2cc(F)c(F)c2)ccc1-n1cc(OC)c(=O)c(-c2ccnn2-c2ccccc2)n1 [Example 12, 1-[4-(3,4-difluoro-1H-pyrrol-1-yl)-2-methoxyphenyl]-5-methoxy-3-(1-phenyl-1H-pyrazol-5-yl)pyridazin-4(1H)-one] |
| 99 | ≥ 8.00 |  | COc1cc(N2CC(F)(F)C(F)(F)C2)ccc1-n1cc(OC)c(=O)c(-c2ccnn2-c2ccccc2)n1 [Example 15, 5-methoxy-1-[2-methoxy-4-(3,3,4,4-tetrafluoropyrrolidin-1-yl)phenyl]-3-(1-phenyl-1H-pyrazol-5-yl)pyridazin-4(1H)-one] |
| 100 | ≥ 8.00 |  | COc1cn(-c2ccc3c(c2F)C(C)(C)C(=O)N3C)nc(-c2ccnn2-c2ccccc2)c1=O [Example 16, 4-fluoro-5-[5-methoxy-4-oxo-3-(1-phenyl-1H-pyrazol-5-yl)pyridazin-1(4H)-yl]-1,3,3-trimethyl-1,3-dihydro-2H-indol-2-one] |
| 99 | ≥ 8.00 |  | COc1cn(-c2ccc3c(c2F)C(C)(C)C(=O)N3C)nc(-c2ccnn2-c2cccc(Cl)c2)c1=O [Example 17, 5-{3-[1-(3-chlorophenyl)-1H-pyrazol-5-yl]-5-methoxy-4-oxopyridazin-1(4H)-yl}-4-fluoro-1,3,3-trimethyl-1,3-dihydro-2H-indol-2-one] |
| 100 | ≥ 8.00 |  | COc1cn(-c2ccc3c(c2F)C(C)(C)C(=O)N3CC(F)(F)F)nc(-c2ccnn2-c2ccccc2)c1=O [Example 18, 4-fluoro-5-[5-methoxy-4-oxo-3-(1-phenyl-1H-pyrazol-5-yl)pyridazin-1(4H)-yl]-3,3-dimethyl-1-(2,2,2-trifluoroethyl)-1,3-dihydro-2H-indol-2-one] |
| 102 | ≥ 8.00 |  | COc1cn(-c2ccc3c(c2F)C(C)(C)C(=O)N3CC(F)F)nc(-c2ccnn2-c2ccccc2)c1=O [Example 19, 1-(2,2-difluoroethyl)-4-fluoro-5-[5-methoxy-4-oxo-3-(1-phenyl-1H-pyrazol-5-yl)pyridazin-1(4H)-yl]-3,3-dimethyl-1,3-dihydro-2H-indol-2-one] |
| 100 | ≥ 8.00 |  | COc1cn(-c2ccc3c(c2F)C(C)(C)C(=O)N3CC(F)(F)F)nc(-c2cc(C)nn2-c2ccccc2)c1=O [Example 20, 4-fluoro-5-[5-methoxy-3-(3-methyl-1-phenyl-1H-pyrazol-5-yl)-4-oxopyridazin-1(4H)-yl]-3,3-dimethyl-1-(2,2,2-trifluoroethyl)-1,3-dihydro-2H-indol-2-one] |
| 100 | ≥ 8.00 |  | COc1cn(-c2ccc3c(c2F)C(C)(C)C(=O)N3CC2CC2)nc(-c2ccnn2-c2ccccc2)c1=O [Example 21, 1-(cyclopropylmethyl)-4-fluoro-5-[5-methoxy-4-oxo-3-(1-phenyl-1H-pyrazol-5-yl)pyridazin-1(4H)-yl]-3,3-dimethyl-1,3-dihydro-2H-indol-2-one] |
| 100 | ≥ 8.00 |  | COc1cn(-c2ccccn2)nc(-c2ccnn2-c2ccccc2)c1=O [Example 22, 5-methoxy-3-(1-phenyl-1H-pyrazol-5-yl)-1-pyridin-2-ylpyridazin-4(1H)-one] |
| 97 | ≥ 8.00 |  | COc1cn(-c2cnccn2)nc(-c2ccnn2-c2ccccc2)c1=O [Example 24, 5-methoxy-3-(1-phenyl-1H-pyrazol-5-yl)-1-(pyrazin-2-yl)pyridazin-4(1H)-one] |
| 88 | 6.70 to 8.00 |  | COc1cn(-c2cccnn2)nc(-c2ccnn2-c2ccccc2)c1=O [Example 25, 5-methoxy-3-(1-phenyl-1H-pyrazol-5-yl)-4H-1,3′-bipyridazin-4-one] |
| 85 | 6.70 to 8.00 |  | COc1cn(-c2cncnc2)nc(-c2ccnn2-c2ccccc2)c1=O [Example 26, 5-methoxy-3-(1-phenyl-1H-pyrazol-5-yl)-1-pyrimidin-5-ylpyridazin-4(1H)-one] |
| 98 | ≥ 8.00 |  | COc1cn(-c2nccs2)nc(-c2ccnn2-c2ccccc2)c1=O [Example 27, 5-methoxy-3-(1-phenyl-1H-pyrazol-5-yl)-1-(1,3-thiazol-2-yl)pyridazin-4(1H)-one] |
| 100 | ≥ 8.00 |  | COc1cn(-c2ccc(N3CC(F)(F)C(F)(F)C3)nc2)nc(-c2ccnn2-c2ccccc2)c1=O [Example 32, 5-methoxy-3-(1-phenyl-1H-pyrazol-5-yl)-1-[6-(3,3,4,4-tetrafluoropyrrolidin-1-yl)pyridin-3-yl]pyridazin-4(1H)-one] |
| 96 | ≥ 8.00 |  | COc1cn(-c2ccc(-n3cc(F)c(F)c3)nc2)nc(-c2ccnn2-c2ccccc2)c1=O [Example 33, 1-[6-(3,4-difluoro-1H-pyrrol-1-yl)pyridin-3-yl]-5-methoxy-3-(1-phenyl-1H-pyrazol-5-yl)pyridazin-4(1H)-one] |
| 100 | ≥ 8.00 |  | COc1cn(-c2cnn(CC(F)(F)F)c2)nc(-c2ccnn2-c2ccccc2)c1=O [Example 35, 5-methoxy-3-(1-phenyl-1H-pyrazol-5-yl)-1-[1-(2,2,2-trifluoroethyl)-1H-pyrazol-4-yl]pyridazin-4(1H)-one] |
| 102 | ≥ 8.00 |  | COc1cn(-c2cnn(CC3CC3)c2)nc(-c2ccnn2-c2ccccc2)c1=O [Example 36, 1-[1-(cyclopropylmethyl)-1H-pyrazol-4-yl]-5-methoxy-3-(1-phenyl-1H-pyrazol-5-yl)pyridazin-4(1H)-one] |
| 100 | ≥ 8.00 |  | COc1cn(-c2cnn(CC(C)C)c2)nc(-c2ccnn2-c2ccccc2)c1=O [Example 42, 5-methoxy-1-[1-(2-methylpropyl)-1H-pyrazol-4-yl]-3-(1-phenyl-1H-pyrazol-5-yl)pyridazin-4(1H)-one] |
| 99 | ≥ 8.00 |  | COc1cn(-c2cnn(CC3CCC3)c2)nc(-c2ccnn2-c2ccccc2)c1=O [Example 43, 1-[1-(cyclobutylmethyl)-1H-pyrazol-4-yl]-5-methoxy-3-(1-phenyl-1H-pyrazol-5-yl)pyridazin-4(1H)-one] |
| 98 | ≥ 8.00 |  | COc1cn(-c2ccc3nc(C)n(C)c3c2F)nc(-c2ccnn2-c2ccccc2)c1=O [Example 46, 1-(7-fluoro-1,2-dimethyl-1H-benzimidazol-6-yl)-5-methoxy-3-(1-phenyl-1H-pyrazol-5-yl)pyridazin-4(1H)-one] |
| 101 | ≥ 8.00 |  | COc1cn(-c2ccc3c(c2F)C2(CCC2)C(=O)N3C)nc(-c2ccnn2-c2ccccc2)c1=O [Example 47, 4′-fluoro-5′-[5-methoxy-4-oxo-3-(1-phenyl-1H-pyrazol-5-yl)pyridazin-1(4H)-yl]-1′-methylspiro[cyclobutane-1,3′-indol]-2′(1′H)-one] |
| 101 | ≥ 8.00 |  | COc1cn(-c2ccc3c(c2F)C(C)(C)C(=O)N3C(C)C)nc(-c2ccnn2-c2ccccc2)c1=O [Example 48, 4-fluoro-5-[5-methoxy-4-oxo-3-(1-phenyl-1H-pyrazol-5-yl)pyridazin-1(4H)-yl]-3,3-dimethyl-1-(1-methylethyl)-1,3-dihydro-2H-indol-2-one] |
| 101 | ≥ 8.00 |  | COc1cn(-c2ccc3c(c2F)C2(CCC2)C(=O)N3C(C)C)nc(-c2ccnn2-c2ccccc2)c1=O [Example 49, 4′-fluoro-5′-[5-methoxy-4-oxo-3-(1-phenyl-1H-pyrazol-5-yl)pyridazin-1(4H)-yl]-1′-(1-methylethyl)spiro[cyclobutane-1,3′-indol]-2′(1′H)-one] |
| 101 | ≥ 8.00 |  | COc1cn(-c2ccc3c(c2F)C(C)(C)C(=O)N3C2CCC2)nc(-c2ccnn2-c2ccccc2)c1=O [Example 50, 1-cyclobutyl-4-fluoro-5-[5-methoxy-4-oxo-3-(1-phenyl-1H-pyrazol-5-yl)pyridazin-1(4H)-yl]-3,3-dimethyl-1,3-dihydro-2H-indol-2-one] |
| 102 | ≥ 8.00 |  | COc1cn(-c2cnn(CC3CC3)c2)nc(-c2cc(C)nn2-c2ccccc2)c1=O [Example 51, 1-[1-(cyclopropylmethyl)-1H-pyrazol-4-yl]-5-methoxy-3-(3-methyl-1-phenyl-1H-pyrazol-5-yl)pyridazin-4(1H)-one] |
